Assay results from US10906873B2, “Substituted cyclic amides as herbicides” (FMC Corporation, priority 2015, dated 2021).

Key:
Type in all cases: in vivo
rice (Oryza sativa) = assay: Test B flooded paddy test, rice; settings: Flood, scale of 0 to 100 where 0 is no effect and 100 is complete control, 13 to 15 d
How it was run: (§1)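 Plants at the 2-leaf stage were flooded to 3 cm above soil, and test compounds were applied directly into the paddy water, which was held at that depth throughout. After 13 to 15 d in a greenhouse, injury was rated visually against untreated controls on a 0–100 scale (0 no effect, 100 complete control).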

[1] = system: velvetleaf (Abutilon theophrasti); assay: Test A preemergence, velvetleaf; settings: 1000 g ai/ha, 0 to 100 scale
Source text: (§2) Seeds of plant species selected from barnyardgrass (Echinochloa crus-galli), crabgrass (large crabgrass, Digitaria sanguinalis), kochia (Kochia scoparia), ragweed (common ragweed, Ambrosia elatior), morningglory (Ipomoea spp.), velvetleaf (Abutilon theophrasti), ryegrass, It. (Italian ryegrass, Lolium multiflorum), foxtail, giant (giant foxtail, Setaria faberii), wheat (Triticum aestivum), corn (Zea mays), and pigweed (Amaranthus retroflexus), were planted into a blend of loam soil and sand and treated preemergence with a directed soil spray using test chemicals formulated in a non-phytotoxic solvent mixture which included a surfactant. At the same time, plants selected from these crop and weed species and also blackgrass (Alopecurus myosuroides), and galium (catchweed bedstraw, Galium aparine), were planted in pots containing the same blend of loam soil and sand and treated with postemergence applications of test chemicals formulated in the same manner. Plants ranged in height from 2 to 10 cm and were in the one- to two-leaf stage for the postemergence treatment. Treated plants and untreated controls were maintained in a greenhouse for approximately 10 d, after which time all treated plants were compared to untreated controls and visually evaluated for injury. Plant response ratings, summarized in Table A, are based on a 0 to 100 scale where 0 is no effect and 100 is complete control. A dash (-) response means no test result.

[2] = system: barnyardgrass (Echinochloa crus-galli); assay: Test A preemergence, barnyardgrass; settings: 1000 g ai/ha, 0 to 100 scale
How it was run: (§3)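 Scores run from 0, no effect, to 100, complete control, assigned visually after roughly 10 d in the greenhouse. Preemergence treatment is a directed spray onto sown loam–sand soil; postemergence treatment targets plants 2 to 10 cm tall.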

[3] = system: barnyardgrass (Echinochloa crus-galli); assay: Test B flooded paddy test, barnyardgrass; settings: Flood, scale of 0 to 100 where 0 is no effect and 100 is complete control, 13 to 15 d
How it was run: as §1

[4] = system: crabgrass (large crabgrass, Digitaria sanguinalis); assay: Test A preemergence, crabgrass; settings: 1000 g ai/ha, 0 to 100 scale
Source text: as §2

[5] = system: pigweed (Amaranthus retroflexus); assay: Test A preemergence, pigweed; settings: 1000 g ai/ha, 0 to 100 scale
How it was run: as §3

[6] = system: sedge, umbrella (small-flower umbrella sedge, Cyperus difformis); assay: Test B flooded paddy test, sedge, umbrella; settings: Flood, scale of 0 to 100 where 0 is no effect and 100 is complete control, 13 to 15 d
How it was run: as §1

[7] = system: morningglory (Ipomoea spp.); assay: Test A preemergence, morningglory; settings: 1000 g ai/ha, 0 to 100 scale
Source text: as §2

corn (Zea mays) [8] = assay: Test A preemergence, corn; settings: 1000 g ai/ha, 0 to 100 scale
Source text: as §2

[9] = system: crabgrass (large crabgrass, Digitaria sanguinalis); assay: Test A postemergence, crabgrass; settings: 1000 g ai/ha, 0 to 100 scale
Source text: as §2

[10] = system: velvetleaf (Abutilon theophrasti); assay: Test A postemergence, velvetleaf; settings: 1000 g ai/ha, 0 to 100 scale
Source text: as §2

[11] = system: foxtail, giant (giant foxtail, Setaria faberii); assay: Test A preemergence, foxtail, giant; settings: 1000 g ai/ha, 0 to 100 scale
How it was run: as §3

[12] = system: wheat (Triticum aestivum); assay: Test A postemergence, wheat; settings: 1000 g ai/ha, 0 to 100 scale
How it was run: as §3

[13] = system: morningglory (Ipomoea spp.); assay: Test A postemergence, morningglory; settings: 1000 g ai/ha, 0 to 100 scale
Source text: as §2

[14] = system: wheat (Triticum aestivum); assay: Test A preemergence, wheat; settings: 1000 g ai/ha, 0 to 100 scale
Source text: as §2

[15] = system: pigweed (Amaranthus retroflexus); assay: Test A postemergence, pigweed; settings: 1000 g ai/ha, 0 to 100 scale
How it was run: as §3

[16] = system: ducksalad (Heteranthera limosa); assay: Test B flooded paddy test, ducksalad; settings: Flood, scale of 0 to 100 where 0 is no effect and 100 is complete control, 13 to 15 d
How it was run: as §1

corn (Zea mays) [17] = assay: Test A postemergence, corn; settings: 1000 g ai/ha, 0 to 100 scale
How it was run: as §3

[18] = system: foxtail, giant (giant foxtail, Setaria faberii); assay: Test A postemergence, foxtail, giant; settings: 1000 g ai/ha, 0 to 100 scale
How it was run: as §3

[19] = system: barnyardgrass (Echinochloa crus-galli); assay: Test A postemergence, barnyardgrass; settings: 1000 g ai/ha, 0 to 100 scale (0 no effect, 100 complete control)
How it was run: as §3

Structure (SMILES) | Plant response rating, Velvetleaf [1] | Plant response rating, Barnyardgrass [2] | Plant response rating, Crabgrass [4] | Plant response rating, Pigweed [5] | Plant response rating, Morningglory [7] | Plant response rating, Corn (corn (Zea mays) [8]) | Plant response rating, Crabgrass [9] | Plant response rating, Velvetleaf [10] | Plant response rating, Foxtail, Giant [11] | Plant response rating, Wheat [12] | Plant response rating, Morningglory [13] | Plant response rating, Wheat [14] | Plant response rating, Pigweed [15] | Plant response rating, Corn (corn (Zea mays) [17]) | Plant response rating, Foxtail, Giant [18] | Plant response rating, Barnyardgrass [19] | also measured
O=C1NCC(Cc2ccc(F)cc2)C1C(=O)Nc1cccc(F)c1F (centres unmarked) [Compound 13, N-(2,3-difluorophenyl)-4-[(4-fluorophenyl)methyl]-2-oxo-3-pyrrolidinecarboxamide] | 0 | 80 | 80 | 0 | 0 | 0 | 80 | 0 | 60 | 0 | 0 | 0 | 0 | 0 | 60 | 80 | Plant response rating, Rice (rice (Oryza sativa); 250 g ai/ha): 0; Plant response rating, Barnyardgrass ([3]; 250 g ai/ha): 0; Plant response rating, Sedge, Umbrella ([6]; 250 g ai/ha): 0; Plant response rating, Ducksalad ([16]; 250 g ai/ha): 0
O=C1NCC(Cc2cccc(Cl)c2)C1C(=O)Nc1ccccc1F (centres unmarked) [Compound 2] | 0 | 30 | 90 | 0 | 0 | 0 | 80 | 0 | 80 | 0 | 0 | 0 | 0 | 0 | 60 | 30 | Plant response rating, Rice (rice (Oryza sativa); 1000 g ai/ha): 0; Plant response rating, Barnyardgrass ([3]; 1000 g ai/ha): 0; Plant response rating, Sedge, Umbrella ([6]; 1000 g ai/ha): 0; Plant response rating, Ducksalad ([16]; 1000 g ai/ha): 0
O=C1NCC(Cc2ccc(F)cc2)C1C(=O)Nc1ccccc1F (centres unmarked) [Compound 14] | 0 | 20 | 80 | 0 | 0 | 0 | 20 | 0 | 30 | 0 | 0 | 0 | 0 | 0 | 0 | 0 | –
